Columns and labels:
Assay type in all cases: cell-based, Burkholderia cenocepacia
[1] = tested on: B. cenocepacia C5424 and MH1J; assay: Bacterial viability, LIVE/DEAD fluorescence microscopy; conditions: 10 μM and 100 μM NTBC, 24 h culture
Experimental: Viability was tested by the LIVE/DEAD® method (Molecular probes, Invitrogen). 1 mL of bacterial culture was collected at 24 h, washed twice with phosphate buffered saline (PBS), and the pellet resuspended in 1 mL of Dubecco's modified Eagle's medium (DMEM) supplemented with 10% fetal bovine serum (FBS). Bacteria were incubated for 15 min at RT in the dark, 5 mL of the culture was used for fluorescence microscopy. Images were acquired using a QIMAGING® (Burnaby, British Columbia, Canada) cooled charge coupled-device camera on an Axioscope 2 (Carl Zeiss, Thornwood, N.Y.) microscope with an X100/1.3 numerical aperture Plan-Neofluor objective and a 50-W mercury arc lamp. Images were digitally processed using the Northern Eclipse version 6.0 imaging analysis software (Empix Imaging, Mississauga, Ontario, Canada).
(§1) B. cenocepacia C5424 and MH1J were cultured in the presence of 10 μM and 100 μM NTBC and assayed for growth rates using the BIOSCREEN® system (FIG. 2). Bacterial viability was examined under similar treatment conditions by fluorescence microscopy using the LIVE/DEAD® kit (Molecular Probes, Invitrogen).

[2] = tested on: B. cenocepacia C5424 and MH1J; assay: Growth rate, BIOSCREEN growth curve analysis; conditions: 10 μM and 100 μM NTBC, OD600 over 24 h
Experimental: FIG. 2. Effect of NTBC on growth and viability of B. cenocepacia. B. cenocepacia C5424 (upper graph) and MH1J (lower graph) were cultured in 300 ml of LB by triplicates. Cultures were started at an OD600 of 0.1 and OD600 readings were taken every 30 min over 24 h using the BIOSCREEN® system.
To assess growth rate, overnight cultures were inoculated into fresh medium with a starting optical density at 600 (OD600) of 0.1. Growth rates were determined in 100-well microtiter plates by use of a BIOSCREEN® C automated microbiology growth curve analysis system (MTX Lab Systems, Inc., Vienna, Va.) under high-amplitude shaking conditions.
as §1

[3] = tested on: B. cenocepacia MH1J; assay: Pigment (pyomelanin) production, supernatant OD597; conditions: 24 h culture
Experimental: FIG. 1. NTBC decreases pigment production in B. cenocepacia. B. cenocepacia strains C5424 and MH1J were cultured in presence or absence of NTBC in flasks during 24 h. An aliquot of this culture was used to take the picture in A. To quantify pigment production, 1 ml of culture was centrifuged at 14,000 rpm by 5 min to pellet bacteria. The pigment in the supernatant was quantified at an OD597 nm. The graphic (B) was generated with the results of two independent experiments. Values represent the mean±SD of two independent experiments. ***, p<0.001, Mock (untreated) versus treated with 10 and 100 μM of NTBC.
To test the ability of NTBC 2-[2-nitro-4-(trifluoromethyl)benzoyl]-1,3-cyclohexanedione (NTBC) to decrease pigment production by Burkholderia cenocepacia strains, two strains with the ability to produce pigment were used: (i) the previously described B. cenocepacia C5424, and (ii) B. cenocepacia MH1J, strain with susceptibility to gentamicin.
Bacteria were grown in 10 ml of Luria-Bertani (LB) broth at 37° C. with shaking, using 250 mL-flasks. B. cenocepacia C5424 produced significant pigment at 24 h of culture and MH1J required 48 h to form high pigment production. To quantify the pigment produced by both strains a 1 mL culture was taken at 24 hrs of incubation and the bacteria were pelleted by centrifugation at 14,000 r.p.m. for 5 min. […]

For O=C1CCCC(=O)C1C(=O)c1ccc(C(F)(F)F)cc1[N+](=O)[O-] [NTBC, 2-(2-nitro-4-trifluoromethylbenzoyl)-1,3-cyclohexanedione], the effect on viability [1] was “does not affect growth rate or viability”, the “effect on growth rate” value [2] was “does not affect growth rate” and the “pigment production relative to untreated MH1J” value ([3]; 10 μM NTBC) was 31.53±3.08%. The “pigment production relative to untreated MH1J” value ([3]; 100 μM NTBC) was 36.41±1.80%.
